Read-outs that look alike come from different tables or passages of the source.

Format in all cases: cell-based
Assay [1] concerns MDA-MB-231 (breast cancer). In words: Antiproliferative activity (CCK-8 cell viability), MDA-MB-231. Conditions: Homo sapiens, 72 h, read-out: Antiproliferative activity in cancerous cells, MDA-MB-231 (inhibition of cell growth); for inhibition at 3.3 µM: Compound concentration: 3.3 μM; for inhibition at 10 µM: Compound concentration: 10 μM; for inhibition at 30 µM: Compound concentration: 30 μM. In a few lines:
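MDA-MB-231 breast cancer cells, grown in DMEM with 10% FBS, were plated in 96-well plates at 2,000-5,000 cells/well. Once attached, they were exposed to compound and incubated at 37° C. for 72 h. Viability was then measured with CCK-8 (10 μL per well, 4 h at 37° C.) by absorbance at 450 nm, relative to DMSO vehicle wells.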

Assay [2] relates to B16F10 (malignant melanoma). The assay can be described thus: Antiproliferative activity (CCK-8 cell viability), B16F10. Conditions: Mus musculus, 72 h, read-out: Antiproliferative activity in cancerous cells, B16F10 (inhibition of cell growth); for inhibition at 3.3 µM: B16-F10, Compound concentration: 3.3 μM; for inhibition at 10 µM: B16-F10, Compound concentration: 10 μM; for inhibition at 30 µM: B16-F10, Compound concentration: 30 μM. In a few lines: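 B16F10 melanoma cells grown in DMEM with 10% FBS were plated in 96-well plates at 2,000-5,000 cells/well. After attachment they were exposed to compound in medium for 72 h at 37° C. CCK-8 solution (10 μL) was then added, and after 4 h at 37° C absorbance was read at 450 nm.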

The test system of assay [3] is A549 (lung adenocarcinoma). The assay can be described thus: Antiproliferative activity (CCK-8 cell viability), A549. Conditions: Homo sapiens, 72 h; for inhibition at 3.3 µM: Compound concentration: 3.3 μM; for inhibition at 10 µM: Compound concentration: 10 μM; for inhibition at 30 µM: Compound concentration: 30 μM. Summed up: (§1)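 Cells grown in DMEM (HepG2, SW480), MEM (HeLa) or F-12K (A549), each with 10% FBS, then exposed to compound at 3.3, 10 or 30 μM for 72 h at 37 °C. CCK-8 absorbance at 450 nm; viability expressed as percent of DMSO-treated cells, graded as growth inhibition bands.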

The test system of assay [4] is HeLa (cervical cancer). In words: Antiproliferative activity (CCK-8 cell viability), HeLa. The settings on record: Homo sapiens, 72 h, read-out: Antiproliferative activity in cancerous cells, HELA (inhibition of cell growth); for inhibition at 3.3 µM: Compound concentration: 3.3 μM; for inhibition at 10 µM: Compound concentration: 10 μM; for inhibition at 30 µM: Compound concentration: 30 μM. In a few lines: as §1

Assay [5] concerns SW480 (colon cancer). In words: Antiproliferative activity (CCK-8 cell viability), SW480. The settings on record: Homo sapiens, 72 h; for inhibition at 3.3 µM: Compound concentration: 3.3 μM; for inhibition at 10 µM: Compound concentration: 10 μM; for inhibition at 30 µM: Compound concentration: 30 μM. In a few lines:
as §1

In assay [6] the test system is HepG2 (liver cancer). The assay can be described thus: Antiproliferative activity (CCK-8 cell viability), HepG2. The settings on record: Homo sapiens, 72 h, read-out: Antiproliferative activity in cancerous cells, HepG2 (inhibition of cell growth); for inhibition at 3.3 µM: Compound concentration: 3.3 μM; for inhibition at 10 µM: Compound concentration: 10 μM; for inhibition at 30 µM: Compound concentration: 30 μM. In a few lines:
as §1

Assay [7] concerns A431 (epidermoid carcinoma). In words: Antiproliferative activity (CCK-8 cell viability), A431. Conditions: Homo sapiens, 72 h; for inhibition at 3.3 µM: A-431, Compound concentration: 3.3 μM; for inhibition at 10 µM: A-431, Compound concentration: 10 μM; for inhibition at 30 µM: A-431, Compound concentration: 30 μM. In a few lines:
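A431 epidermoid carcinoma cells grown in DMEM with 10% FBS were plated at 2,000-5,000 cells/well in 96-well plates. After attachment they were exposed to compound at 3.3 μM, 10 μM, or 30 μM for 72 h at 37° C. Viability was then assessed by CCK-8 against DMSO vehicle-treated wells.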

Setting [8] is: read-out: Antiproliferative activity in cancerous cells, A549 (inhibition of cell growth).
[9] abbreviates: read-out: Antiproliferative activity in cancerous cells, SW480 (inhibition of cell growth).
The mark [10] stands for this setting: read-out: Antiproliferative activity in cancerous cells, SW480.
Setting [11] is: read-out: Antiproliferative activity in cancerous cells, A431 (inhibition of cell growth).
[12] abbreviates: read-out: Antiproliferative activity in cancerous cells, A431.

Regarding `CC1=C(CC(=O)O)c2cc(F)c(F)cc2/C1=C\c1ccc(COc2ccc(F)cc2)cc1` [B53, (Z)-2-(5,6-Difluoro-1-(4-((4-fluorophenoxy)methyl)benzylidene)-2-methyl-1H-inden-3-yl)acetic acid], the inhibition at 3.3 µM in assay [1] was ≥ 50%; in assay [2], 30 to 50%; in assay [3] (setting [8]) it was < 30%; in assay [4] it was < 30%; in assay [5] (setting [9]) it was 30 to 50%; in assay [6], < 30%. In assay [7] (setting [11]), the inhibition at 3.3 µM fell in the range of 30 to 50%. The inhibition at 10 µM is ≥ 50% in assay [1]; ≥ 50% in assay [2]; 30 to 50% in assay [3] (setting [8]); < 30% in assay [4]; 30 to 50% in assay [5] (setting [9]); < 30% in assay [6]. Besides, the inhibition at 10 µM in assay [7] (setting [11]) lay within 30 to 50%. For the same compound, the inhibition at 30 µM in assay [5] (setting [10]) and in assay [7] (setting [12]) was 30 to 50% in each case.

Take `CC1=C(CC(=O)O)c2cc(F)ccc2/C1=C\c1cccc(C(O)c2ccccc2)c1` (centres unmarked) [C310, (Z)-2-(5-Fluoro-1-(3-(hydroxy(phenyl)methyl)benzylidene)-2-methyl-1H-inden-3-yl)acetic acid]: the inhibition at 3.3 µM in assay [1] was < 30%; in assay [2], < 30%; in assay [3] (setting [8]), 30 to 50%; in assay [4] it was ≥ 50%; in assay [5] (setting [9]), ≥ 50%; in assay [6] it was 30 to 50%. In addition, the inhibition at 3.3 µM in assay [7] (setting [11]) was ≥ 50%. The inhibition at 10 µM was ≥ 50% in assay [1]; 30 to 50% in assay [2]; 30 to 50% in assay [3] (setting [8]); ≥ 50% in assay [4]; ≥ 50% in assay [5] (setting [9]); ≥ 50% in assay [6]. In addition, in assay [7] (setting [11]), the inhibition at 10 µM lay within 30 to 50%. Besides, the inhibition at 30 µM in assay [1], in assay [2], in assay [3] (setting [8]), in assay [4], in assay [5] (setting [9]) and in assay [6] was ≥ 50% in each case. Also, the inhibition at 30 µM in assay [7] (setting [11]) was ≥ 50%.

Regarding `CC1=C(CC(=O)O)c2cc(F)ccc2/C1=C\c1ccc(COc2ccc(Cl)cc2)cc1Br` [B72, (Z)-2-(1-(2-Bromo-4-((4-chlorophenoxy)methyl)benzylidene)-5-fluoro-2-methyl-1H-inden-3-yl)acetic acid], the inhibition at 3.3 µM in assay [1] was 30 to 50%; in assay [2] it was ≥ 50%; in assay [3] (setting [8]) it was ≥ 50%; in assay [4], ≥ 50%; in assay [5] (setting [9]), 30 to 50%; in assay [6], ≥ 50%. Further, in assay [7] (setting [11]), the inhibition at 3.3 µM is ≥ 50%. The inhibition at 10 µM in assay [1] was 30 to 50%; in assay [2] it was ≥ 50%; in assay [3] (setting [8]), ≥ 50%; in assay [4], ≥ 50%; in assay [5] (setting [9]) it was 30 to 50%; in assay [6], ≥ 50%. Besides, in assay [7] (setting [11]), the inhibition at 10 µM is ≥ 50%. Besides, in assay [5] (setting [10]), the inhibition at 30 µM was in the range of 30 to 50%.

As for `CC1=C(CC(=O)O)c2cc(F)ccc2/C1=C\c1ccc(C(=O)c2cc3ccccc3s2)cc1` [C303, (Z)-2-(1-(4-(Benzo[b]thiophene-2-carbonyl)benzylidene)-5-fluoro-2-methyl-1H-inden-3-yl)acetic acid], the inhibition at 3.3 µM was ≥ 50% in assay [1]; ≥ 50% in assay [2]; 30 to 50% in assay [3] (setting [8]); 30 to 50% in assay [4]; 30 to 50% in assay [5] (setting [9]); 30 to 50% in assay [6]. The inhibition at 3.3 µM in assay [7] (setting [11]) was < 30%. The inhibition at 10 µM in assay [1], in assay [2], in assay [3] (setting [8]), in assay [4], in assay [5] (setting [9]) and in assay [6] was ≥ 50% each time. In addition, the inhibition at 10 µM in assay [7] (setting [11]) is ≥ 50%. Besides, the inhibition at 30 µM in assay [1], in assay [2], in assay [3] (setting [8]), in assay [4], in assay [5] (setting [9]) and in assay [6] was ≥ 50% each time. For the same compound, in assay [7] (setting [11]), the inhibition at 30 µM is ≥ 50%.

Regarding `CC1=C(CC(O)CO)c2ccccc2/C1=C\c1ccc(Oc2ccc(F)cc2)cc1` (centres unmarked) [A203, (Z)-3-(1-(4-(4-Fluorophenoxy)benzylidene)-2-methyl-1H-inden-3-yl)propane-1,2-diol], the inhibition at 3.3 µM in assay [1], in assay [2], in assay [3] (setting [8]), in assay [4], in assay [5] (setting [9]) and in assay [6] was < 30% throughout. In assay [7] (setting [11]), the inhibition at 3.3 µM is 30 to 50%. Besides, the inhibition at 10 µM in assay [1] is ≥ 50%; in assay [2], ≥ 50%; in assay [3] (setting [8]) it was ≥ 50%; in assay [4] it was ≥ 50%; in assay [5] (setting [9]), 30 to 50%; in assay [6], < 30%. In addition, the inhibition at 10 µM in assay [7] (setting [11]) was ≥ 50%.

For `CC1=C(CCOC(=O)N(C)N)c2cc(F)ccc2/C1=C\c1ccc(Oc2ccc(F)cc2)cc1` [A205, (Z)-2-(5-Fluoro-1-(4-(4-fluorophenoxy)benzylidene)-2-methyl-1H-inden-3-yl)ethyl 1-methylhydrazine-1-carboxylate], the inhibition at 3.3 µM was < 30% in assay [1]; < 30% in assay [2]; < 30% in assay [3] (setting [8]); 30 to 50% in assay [4]; < 30% in assay [5] (setting [9]); 30 to 50% in assay [6]. The inhibition at 3.3 µM in assay [7] (setting [11]) was < 30%. The inhibition at 10 µM was ≥ 50% in assay [1]; < 30% in assay [2]; < 30% in assay [3] (setting [8]); ≥ 50% in assay [4]; < 30% in assay [5] (setting [9]); ≥ 50% in assay [6]. Also, in assay [7] (setting [11]), the inhibition at 10 µM is < 30%. Further, the inhibition at 30 µM is 30 to 50% in assay [3] (read-out: Antiproliferative activity in cancerous cells, A549); 30 to 50% in assay [5] (setting [10]); 30 to 50% in assay [7] (setting [12]).

Values taken from patent US20260184663A1, “INDENE COMPOUNDS, PHARMACEUTICAL COMPOSITIONS THEREOF, AND THEIR THERAPEUTIC APPLICATIONS” (NucMito Pharmaceuticals co. Ltd., priority 2022, published 2026).
